Measurements published in paper PMC7782793, “Hydroxamic acid-modified peptide microarrays for profiling isozyme-selective interactions and inhibition of histone deacetylases” (Nature Communications, 2021).
“And” between values parts separate entries of the source, which are not always exact repeats. Equal values may be shown once. Marks after values point to notes of the source that are not given here. Non-standard residues stand in square brackets, D forms with d. Residues, ends and D or L forms follow the SMILES beside them. *: point of attachment. Asu = N[C@@H](CCCCCC(=O)O)C(=O)O; NHOH = ON*

Key:
HDAC3/NCoR2 [1] = molecular target: T1, HDAC3/NCoR2 (Homo sapiens, UniProt O15379); test: HDAC inhibition assay (fluorogenic, Ac-Leu-Gly-Lys(Ac)-AMC); type: biochemical; details: for HDAC3 dose-response data (relative enzyme activity), Fig. 6 + S. Fig. 10: duplicate columns
T1 construct: HDAC3/NCoR2 (full length, C-terminal His tag, NCoR2 N-terminal GST tag); purchased BPS Bioscience 50003

HDAC6 = molecular target: T2, HDAC6 (Homo sapiens, UniProt Q9UBN7); test: as above; type: biochemical; details: for residual enzymatic activity relative to control wells: HDAC6, replicates
T2 construct: HDAC6 (full length, BPS Bioscience, cat. #: 50056); purchased BPS Bioscience 50056
T2 sequence (Q9UBN7 1-1215): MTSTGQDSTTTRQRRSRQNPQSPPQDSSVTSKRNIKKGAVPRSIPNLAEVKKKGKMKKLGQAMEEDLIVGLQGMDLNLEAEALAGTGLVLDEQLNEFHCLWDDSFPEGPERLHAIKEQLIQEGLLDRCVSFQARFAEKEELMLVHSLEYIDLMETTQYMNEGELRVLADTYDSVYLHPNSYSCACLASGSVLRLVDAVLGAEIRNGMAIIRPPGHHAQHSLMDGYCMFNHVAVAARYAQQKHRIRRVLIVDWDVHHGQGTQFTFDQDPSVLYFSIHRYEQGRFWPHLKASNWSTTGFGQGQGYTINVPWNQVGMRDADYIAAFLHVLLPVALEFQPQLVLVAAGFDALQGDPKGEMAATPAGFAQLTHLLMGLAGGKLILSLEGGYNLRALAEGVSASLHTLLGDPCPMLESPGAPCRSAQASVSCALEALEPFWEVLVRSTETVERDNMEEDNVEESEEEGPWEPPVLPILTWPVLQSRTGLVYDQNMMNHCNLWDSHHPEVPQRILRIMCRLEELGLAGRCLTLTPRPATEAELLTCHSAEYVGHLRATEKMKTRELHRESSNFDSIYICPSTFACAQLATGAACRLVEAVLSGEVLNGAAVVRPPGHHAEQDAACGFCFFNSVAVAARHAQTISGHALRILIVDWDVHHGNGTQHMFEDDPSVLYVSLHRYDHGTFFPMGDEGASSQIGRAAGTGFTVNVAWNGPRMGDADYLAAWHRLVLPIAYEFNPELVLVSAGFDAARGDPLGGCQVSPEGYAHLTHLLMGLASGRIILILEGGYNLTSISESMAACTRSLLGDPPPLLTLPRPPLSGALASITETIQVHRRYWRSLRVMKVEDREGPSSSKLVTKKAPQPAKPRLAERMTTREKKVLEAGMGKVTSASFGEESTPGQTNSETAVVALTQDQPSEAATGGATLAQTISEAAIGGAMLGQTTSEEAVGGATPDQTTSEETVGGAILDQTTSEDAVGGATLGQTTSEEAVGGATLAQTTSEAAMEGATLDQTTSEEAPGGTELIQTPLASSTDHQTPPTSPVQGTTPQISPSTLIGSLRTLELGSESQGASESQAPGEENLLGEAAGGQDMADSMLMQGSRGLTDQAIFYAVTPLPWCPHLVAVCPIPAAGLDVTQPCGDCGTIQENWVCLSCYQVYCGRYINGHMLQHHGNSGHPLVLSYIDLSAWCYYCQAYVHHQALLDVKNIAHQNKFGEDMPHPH

HDAC1 [2] = molecular target: T3, HDAC1 (Homo sapiens, UniProt Q13547); test: as above; type: biochemical; details: for HDAC1 dose-response data (relative enzyme activity), Fig. 6 + S. Fig. 10: duplicate columns
T3 construct: HDAC1 (full length, C-terminal His tag, C-terminal FLAG tag, BPS Bioscience, cat. #: 50051); FLAG (C); purchased BPS Bioscience 50051

HDAC2 = molecular target: T4, HDAC2 (Homo sapiens, UniProt Q92769); test: as above; type: biochemical; details: for HDAC2 dose-response data (relative enzyme activity), Fig. 6 + S. Fig. 10: duplicate columns
T4 construct: HDAC2 (full length, C-terminal His tag, BPS Bioscience, cat. #: 50002); purchased BPS Bioscience 50002

HDAC4 = molecular target: T5, HDAC4 (Homo sapiens, UniProt P56524); test: HDAC inhibition assay (fluorogenic, Ac-Leu-Gly-Lys(Tfa)-AMC); type: biochemical; details: 2 internal replicates
T5 construct: purchased BPS Bioscience 50004

HDAC1 [3] = molecular target: T3, HDAC1; test: Recombinant HDAC µSPOT microarray binding assay
Experimental: Experiments were performed twice, data were obtained with Array Analyze software (Active Motif), and data analysis and representation were performed with the GraphPad Prism 7 software. Outliers were curated manually and data were fitted to nonlinear regression [log(agonist) vs. response—variable slope (four parameters)]. […] Non-sigmoidal curves were denoted as not determined (N.D.) The pEC50 values were determined as the concentration of HDAC enzyme required for half-maximal binding signal.

HDAC3/NCoR2 [4] = molecular target: T1, HDAC3/NCoR2; test: Recombinant HDAC µSPOT microarray binding assay
HDAC8 = molecular target: T6, HDAC8 (Homo sapiens, UniProt Q9BY41); test: HDAC inhibition assay (fluorogenic, Ac-Leu-Gly-Lys(Tfa)-AMC); type: biochemical; details: for HDAC8 dose-response data (relative enzyme activity, replicate values), Fig. 6 + S. Fig. 10: two replicate columns per inhibitor; for HDAC8 dose-response data (relative enzyme activity), Fig. 6 + S. Fig. 10: duplicate columns
T6 construct: HDAC8 (full length, C-terminal His tag, BPS Bioscience, cat. #: 50008); purchased BPS Bioscience 50008
T6 sequence (Q9BY41 1-377): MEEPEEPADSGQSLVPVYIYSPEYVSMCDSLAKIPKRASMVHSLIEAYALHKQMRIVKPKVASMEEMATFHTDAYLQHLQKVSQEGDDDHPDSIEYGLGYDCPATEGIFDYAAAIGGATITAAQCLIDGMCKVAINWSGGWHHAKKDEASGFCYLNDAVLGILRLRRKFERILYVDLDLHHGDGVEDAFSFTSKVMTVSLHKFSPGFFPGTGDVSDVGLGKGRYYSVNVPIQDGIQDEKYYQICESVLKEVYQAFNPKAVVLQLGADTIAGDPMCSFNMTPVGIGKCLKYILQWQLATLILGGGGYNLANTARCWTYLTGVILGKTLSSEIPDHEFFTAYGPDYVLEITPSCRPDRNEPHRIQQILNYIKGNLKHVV

[5] = log[inhibitor(M)] -10,5850266520292*, whole line marked with asterisks

T1 sequence (O15379 whole entry): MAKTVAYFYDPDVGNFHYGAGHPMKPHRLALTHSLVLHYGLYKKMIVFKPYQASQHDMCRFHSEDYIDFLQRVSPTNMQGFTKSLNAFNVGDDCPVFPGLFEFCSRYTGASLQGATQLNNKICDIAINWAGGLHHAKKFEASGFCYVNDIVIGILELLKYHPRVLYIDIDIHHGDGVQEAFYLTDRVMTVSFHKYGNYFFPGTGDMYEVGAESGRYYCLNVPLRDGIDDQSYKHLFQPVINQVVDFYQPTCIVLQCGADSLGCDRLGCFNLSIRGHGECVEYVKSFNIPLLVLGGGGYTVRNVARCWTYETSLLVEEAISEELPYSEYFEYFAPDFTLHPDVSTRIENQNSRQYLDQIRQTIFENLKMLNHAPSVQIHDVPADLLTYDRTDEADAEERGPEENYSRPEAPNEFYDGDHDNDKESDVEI
T1 sequence (Q9Y618 389-480 partner limits assumed): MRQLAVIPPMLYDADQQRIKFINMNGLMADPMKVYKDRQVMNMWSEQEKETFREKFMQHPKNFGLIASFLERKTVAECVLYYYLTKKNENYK
T5 sequence (P56524 627-1084): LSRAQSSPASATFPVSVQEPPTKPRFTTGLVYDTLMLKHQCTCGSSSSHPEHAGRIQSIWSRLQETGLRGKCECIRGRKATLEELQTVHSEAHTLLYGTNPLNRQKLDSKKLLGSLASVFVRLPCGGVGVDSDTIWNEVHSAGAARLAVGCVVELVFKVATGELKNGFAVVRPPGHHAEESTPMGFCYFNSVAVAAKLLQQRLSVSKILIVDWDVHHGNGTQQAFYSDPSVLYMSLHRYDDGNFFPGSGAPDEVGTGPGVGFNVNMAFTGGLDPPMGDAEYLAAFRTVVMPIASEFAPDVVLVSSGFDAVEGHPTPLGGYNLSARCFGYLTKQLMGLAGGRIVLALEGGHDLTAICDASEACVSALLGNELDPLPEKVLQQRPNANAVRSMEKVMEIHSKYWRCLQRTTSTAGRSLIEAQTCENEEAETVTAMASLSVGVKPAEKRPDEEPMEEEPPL
T3 sequence (Q13547 whole entry): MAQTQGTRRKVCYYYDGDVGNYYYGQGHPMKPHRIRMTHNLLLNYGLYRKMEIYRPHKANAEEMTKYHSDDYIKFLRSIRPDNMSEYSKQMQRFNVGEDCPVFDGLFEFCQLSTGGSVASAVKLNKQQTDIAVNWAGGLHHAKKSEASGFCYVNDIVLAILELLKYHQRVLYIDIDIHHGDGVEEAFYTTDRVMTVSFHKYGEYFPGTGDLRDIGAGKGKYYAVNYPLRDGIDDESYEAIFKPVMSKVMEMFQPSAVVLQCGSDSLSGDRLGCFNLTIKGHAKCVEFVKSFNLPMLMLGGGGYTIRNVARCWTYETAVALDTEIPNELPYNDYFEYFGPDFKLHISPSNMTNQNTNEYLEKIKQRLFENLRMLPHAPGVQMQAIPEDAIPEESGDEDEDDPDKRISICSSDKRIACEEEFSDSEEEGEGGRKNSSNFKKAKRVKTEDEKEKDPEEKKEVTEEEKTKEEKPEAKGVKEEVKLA
T4 sequence (Q92769 whole entry): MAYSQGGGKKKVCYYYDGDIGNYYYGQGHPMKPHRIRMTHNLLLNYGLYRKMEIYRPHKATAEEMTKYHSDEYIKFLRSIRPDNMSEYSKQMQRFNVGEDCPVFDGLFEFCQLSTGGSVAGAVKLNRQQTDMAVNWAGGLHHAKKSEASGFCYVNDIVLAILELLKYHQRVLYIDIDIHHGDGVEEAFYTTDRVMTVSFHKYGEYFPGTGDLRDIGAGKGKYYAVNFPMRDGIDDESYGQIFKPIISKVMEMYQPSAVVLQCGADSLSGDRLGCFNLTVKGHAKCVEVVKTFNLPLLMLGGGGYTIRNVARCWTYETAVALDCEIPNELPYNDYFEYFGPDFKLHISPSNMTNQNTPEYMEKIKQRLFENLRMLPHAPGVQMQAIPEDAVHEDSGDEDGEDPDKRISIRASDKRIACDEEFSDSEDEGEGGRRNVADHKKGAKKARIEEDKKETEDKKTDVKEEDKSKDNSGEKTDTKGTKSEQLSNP

CC(=O)N[C@@H](C)C(=O)N[C@H](C(=O)NCC(=O)NCC(=O)N[C@H](C(=O)N[C@@H](CCCCCC(=O)NO)C(=O)N[C@@H](CCCCN)C(=O)N1CCC[C@H]1C(=O)N[C@@H](Cc1c[nH]cn1)C(=O)N[C@@H](CCCNC(=N)N)C(=O)N[C@@H](Cc1ccc(O)cc1)C(=O)N[C@@H](CCCNC(=N)N)C(=O)N1CCC[C@H]1C(=O)NCC(=O)N[C@H](C(=O)N[C@H](C(=O)N[C@@H](Cc1c[nH]c2ccccc12)C(N)=O)C(C)C)[C@@H](C)O)C(C)C)[C@@H](C)O [15a] (Ac-ATGGV[Asu](NHOH)KPHRYRPGTVW-NH2)
Ki (HDAC3/NCoR2 [1]): 21.7 ± 0.2 nM
HDAC3 dose-response data (relative enzyme activity), Fig. 6 + S. Fig. 10 (HDAC3/NCoR2 [1]; log[inhibitor(M)] -4.30103): 0.4402 and 0.4708
HDAC3 dose-response data (relative enzyme activity), Fig. 6 + S. Fig. 10 (HDAC3/NCoR2 [1]; log[inhibitor(M)] -5): 1.6435 and 1.312
HDAC3 dose-response data (relative enzyme activity), Fig. 6 + S. Fig. 10 (HDAC3/NCoR2 [1]; log[inhibitor(M)] -5.69897): 7.236 and 5.348
HDAC3 dose-response data (relative enzyme activity), Fig. 6 + S. Fig. 10 (HDAC3/NCoR2 [1]; log[inhibitor(M)] -6.39794): 28.5726 and 19.4648
HDAC3 dose-response data (relative enzyme activity), Fig. 6 + S. Fig. 10 (HDAC3/NCoR2 [1]; log[inhibitor(M)] -7.09691): 64.2255 and 50.9194
HDAC3 dose-response data (relative enzyme activity), Fig. 6 + S. Fig. 10 (HDAC3/NCoR2 [1]; log[inhibitor(M)] -7.79588): 97.9959 and 83.1339
HDAC3 dose-response data (relative enzyme activity), Fig. 6 + S. Fig. 10 (HDAC3/NCoR2 [1]; log[inhibitor(M)] -8.49485): 112.173 and 97.0745
HDAC3 dose-response data (relative enzyme activity), Fig. 6 + S. Fig. 10 (HDAC3/NCoR2 [1]; log[inhibitor(M)] -9.19382): 112.635 and 104.337
HDAC3 dose-response data (relative enzyme activity), Fig. 6 + S. Fig. 10 (HDAC3/NCoR2 [1]; log[inhibitor(M)] -9.89279): 114.089 and 99.1792
residual enzymatic activity relative to control wells (HDAC6; log[inhibitor(M)] -4.30103): 3.78 and 1.49
residual enzymatic activity relative to control wells (HDAC6; log[inhibitor(M)] -5): 9.7 and 2.71
residual enzymatic activity relative to control wells (HDAC6; log[inhibitor(M)] -5.69897): 22.49 and 13.07
residual enzymatic activity relative to control wells (HDAC6; log[inhibitor(M)] -6.39794): 47.9 and 35.05
residual enzymatic activity relative to control wells (HDAC6; log[inhibitor(M)] -7.09691): 78.65 and 63.46
residual enzymatic activity relative to control wells (HDAC6; log[inhibitor(M)] -7.79588): 92.99 and 81.77
residual enzymatic activity relative to control wells (HDAC6; log[inhibitor(M)] -8.49485): 99.83 and 89.79
residual enzymatic activity relative to control wells (HDAC6; log[inhibitor(M)] -9.19382): 102.59 and 95.48
residual enzymatic activity relative to control wells (HDAC6; log[inhibitor(M)] -9.89279): 101.36 and 96.27
residual enzymatic activity relative to control wells (HDAC6; log[inhibitor(M)] -10.585): 101,22* and 96,07*
Ki (HDAC6; in solution): 114 ± 2 nM
Ki (HDAC1 [2]): 70 ± 1 nM
HDAC1 dose-response data (relative enzyme activity), Fig. 6 + S. Fig. 10 (HDAC1 [2]; log[inhibitor(M)] -4.30103): 2.2617 and 2.685
HDAC1 dose-response data (relative enzyme activity), Fig. 6 + S. Fig. 10 (HDAC1 [2]; log[inhibitor(M)] -6.39794): 54.2155 and 43.2283
HDAC1 dose-response data (relative enzyme activity), Fig. 6 + S. Fig. 10 (HDAC1 [2]; log[inhibitor(M)] -7.09691): 91.0731 and 84.0543
HDAC1 dose-response data (relative enzyme activity), Fig. 6 + S. Fig. 10 (HDAC1 [2]; log[inhibitor(M)] -7.79588): 111.87 and 112.408
HDAC1 dose-response data (relative enzyme activity), Fig. 6 + S. Fig. 10 (HDAC1 [2]; log[inhibitor(M)] -8.49485): 111.243 and 114.065
HDAC1 dose-response data (relative enzyme activity), Fig. 6 + S. Fig. 10 (HDAC1 [2]; log[inhibitor(M)] -9.19382): 105.717 and 111.571
HDAC1 dose-response data (relative enzyme activity), Fig. 6 + S. Fig. 10 (HDAC1 [2]; log[inhibitor(M)] -9.89279): 103.869 and 106.196
HDAC1 dose-response data (relative enzyme activity), Fig. 6 + S. Fig. 10 (HDAC1 [2]; [5]): 100,2561* and 100,875*
HDAC2 dose-response data (relative enzyme activity), Fig. 6 + S. Fig. 10 (HDAC2; log[inhibitor(M)] -5): 7.156 and 8.696
HDAC2 dose-response data (relative enzyme activity), Fig. 6 + S. Fig. 10 (HDAC2; log[inhibitor(M)] -5.69897): 27.5449 and 22.7201
HDAC2 dose-response data (relative enzyme activity), Fig. 6 + S. Fig. 10 (HDAC2; log[inhibitor(M)] -7.79588): 107.892 and 100.231
HDAC2 dose-response data (relative enzyme activity), Fig. 6 + S. Fig. 10 (HDAC2; [5]): 104,1863* and 103,2461*
Ki (HDAC2; resynthesized peptide in solution, Cheng-Prusoff, n = 2): 70.2 ± 0.5 nM
residual enzymatic activity relative to control wells (HDAC4; inhibitor 5 µM): 108.47
remaining activity at 5 µM (HDAC4; inhibitor 5 µM, read-out: residual enzymatic activity relative to control wells): 98.7%
residual enzymatic activity relative to control wells (HDAC4; inhibitor 50 µM): 74.7
remaining activity at 50 µM (HDAC4; inhibitor 50 µM, read-out: residual enzymatic activity relative to control wells): 89.4%
EC50 (HDAC1 [3]): 5.01 nM
EC50 (HDAC3/NCoR2 [4]): 2.4 nM
Ki (HDAC8): 1680 ± 13 nM
HDAC8 dose-response data (relative enzyme activity, replicate values), Fig. 6 + S. Fig. 10 (HDAC8; Inhibitor conc [M] -8.49485 (log)): 104.092 and 106.342
HDAC8 dose-response data (relative enzyme activity, replicate values), Fig. 6 + S. Fig. 10 (HDAC8; Inhibitor conc [M] -9.19382 (log)): 107.088 and 104.012
HDAC8 dose-response data (relative enzyme activity, replicate values), Fig. 6 + S. Fig. 10 (HDAC8; Inhibitor conc [M] given as -7.09691 (log)): 97.5487 and 105.051
HDAC8 dose-response data (relative enzyme activity, replicate values), Fig. 6 + S. Fig. 10 (HDAC8; Inhibitor conc [M] given as -7.79588 (log)): 103.383 and 113.008
HDAC8 dose-response data (relative enzyme activity, replicate values), Fig. 6 + S. Fig. 10 (HDAC8; Inhibitor conc [M] given as -9.89279 (log)): 103.125 and 102.688
HDAC8 dose-response data (relative enzyme activity), Fig. 6 + S. Fig. 10 (HDAC8; Inhibitor conc [M] -4.30103): 7.884 and 8.121
HDAC8 dose-response data (relative enzyme activity), Fig. 6 + S. Fig. 10 (HDAC8; Inhibitor conc [M] -5): 24.6267 and 25.2578
HDAC8 dose-response data (relative enzyme activity), Fig. 6 + S. Fig. 10 (HDAC8; Inhibitor conc [M] -5.69897): 57.0341 and 59.1741
HDAC8 dose-response data (relative enzyme activity), Fig. 6 + S. Fig. 10 (HDAC8; Inhibitor conc [M] -6.39794): 87.2467 and 93.8953
